Read-outs that look alike come from different tables or passages of the source.
What was measured:
healthy participants = assay: Clinical Study 1 in healthy individuals, single ascending dose; type: in vivo, human; conditions: left eye, 0.01% to 0.1% (w/v)
Excerpt: In this study, 36 healthy participants (male and female; 40 to 65 years of age) are randomized to participate in single-ascending dose cohorts (designated Cohorts 1, 2, and 3 as shown in Table 9 below) to evaluate safety, tolerability, pharmacokinetics, and target engagement of the compound of Formula I. In each cohort of this study 12 participants are randomized in a 3:1 ratio to receive an ophthalmic solution containing the compound of Formula I (9 participants) or vehicle (3 participants). Participants that are randomized to receive the ophthalmic solution containing the compound of Formula I are administered a single drop of the ophthalmic solution containing the compound of Formula I at doses ranging from 0.01% (w/v) to 0.1% (w/v) (Formulations A-C; see Examples 8-10), with the option of also using a 0.3% (w/v) dose (Formulation D; see Example 11), in the left eye, as indicated in Table 7 below (“SD” means single dose and “OS” means left eye).
Each participant is admitted to the study site on the evening before dosing (Day −1). […]
Safety and tolerability are evaluated by monitoring participants in the three cohorts of this study for exhibition/reporting of adverse events and monitoring characteristics/assessments such as vital signs, electrocardiogram measurements, clinical laboratory assessments, study intervention tolerability and drop comfort assessments, intraocular pressure measurements, slit-lamp biomicroscopy, and dilated funduscopic examination. Systemic and local pharmacokinetics of the compound of Formula I are evaluated by measuring plasma and tear concentrations of the compound of Formula I in the participants and also determining pharmacokinetic parameters such as area under the curve, clearance, half-life, maximum concentration, time to maximum concentration. Target engagement is measured by measuring the pupil size of the participants during the study. […]

[1] = target: T1, bovine alpha adrenergic 1A receptor (Bos taurus, UniProt P18130); assay: FLIPR calcium assay, HEK293 cells stably expressing bovine alpha 1A receptor; type: cell-based; conditions: HEK293 stable cell line, peak calcium signal; read-out: bovine alpha1A EC50 (nm)
T1 construct: expressed in transfected cells
T1 sequence (P18130 1-466): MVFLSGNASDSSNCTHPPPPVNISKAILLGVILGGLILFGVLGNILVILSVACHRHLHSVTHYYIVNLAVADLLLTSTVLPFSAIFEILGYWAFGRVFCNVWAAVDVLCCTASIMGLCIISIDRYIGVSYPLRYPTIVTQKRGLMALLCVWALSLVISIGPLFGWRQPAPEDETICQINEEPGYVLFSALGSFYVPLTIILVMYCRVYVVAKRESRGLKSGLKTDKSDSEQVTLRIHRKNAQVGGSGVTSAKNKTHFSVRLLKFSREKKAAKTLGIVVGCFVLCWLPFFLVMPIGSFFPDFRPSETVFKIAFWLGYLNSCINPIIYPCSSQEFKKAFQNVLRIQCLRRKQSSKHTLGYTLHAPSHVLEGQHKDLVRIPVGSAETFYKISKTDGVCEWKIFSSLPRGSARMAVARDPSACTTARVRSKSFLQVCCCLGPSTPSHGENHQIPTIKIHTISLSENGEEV
Method: (§1) An in vitro FLIPR (fluorometric image plate reader) assay was performed on several compounds, including the compound of Formula I (entry 1 in Table 1).
Specifically, four HEK293 stable cell lines were used in the FLIPR assay. The HEK293 cell line which stably expressed the bovine alpha adrenergic 1A receptor was used to characterize the alpha1 pharmacology. The alpha-2 adrenergic receptor family is a G coupled G-protein receptor. Therefore, in order to use these cell lines in the calcium based FLIPR assay, the chimeric G-protein Gqi5 was used to force the coupling of the human alpha-2A, alpha-2B, and alpha-2C receptors to the calcium pathway. […]
(§2) The receptor activation was initiated by the addition of the appropriate dilutions of compounds and the transient calcium signal was captured. The peak height of the calcium curve was determined and utilized for calculation of EC50 and relative efficacy values using Activity Base software. EC50 was calculated using a 4 Parameter Logistic Equation: y=A+((B−A)/(1+((C/x)^D))) where A and B represents the bottom and top plateau of the curve; C represents the EC50 value; D represents the slope factor; and x and y represent the original x (drug concentration) and y (fluorescence signal, RFU) values.

[2] = Method: Aliquots of the PBS only curve were quenched at time zero to be used as stability controls and calibration standards. Following centrifugation, samples were analyzed by LC-MS/MS bioanalysis. Back-calculated concentrations using the assay PBS curve were used for binding and stability calculations.
[3] = system: participants diagnosed with presbyopia; assay: Clinical Study 2 in presbyopes, once daily for 14 days; type: in vivo, human
Excerpt: In this study, approximately 108 participants diagnosed with presbyopia (male and female; 40 to 65 years of age) are selected to participate.
Cohorts 4, 5, and 6 (Part A) are multiple ascending dose cohorts in which participants are randomized to receive either the compound of Formula I at doses ranging from 0.01% to 0.1% or vehicle once daily in both eyes for 14 days. Each cohort in Part A consists of 9 participants who receive active intervention (the compound of Formula I) and 3 participants that receive vehicle in order to evaluate safety, tolerability, pharmacokinetics, and clinical efficacy of the compound of Formula I. As with Example 8, after each cohort is completed, the independent data monitoring committee reviews the safety, pharmacokinetic, and target engagement data to determine if it is acceptable to proceed to the next planned dosing cohort. The dose of the compound of Formula I in Part B (Cohorts 7 and 8) is selected by the data monitoring committee after Cohort 6 has completed.
Cohort 7 is a single-masked, active comparator cohort that includes approximately 60 masked participants with presbyopia randomized 1:1 to receive either pilocarpine 1.25% (w/v) ophthalmic solution or an ophthalmic solution of the compound of Formula I administered at the dose strength recommended by the data monitoring committee for 14 days. Safety, tolerability, and efficacy is assessed after topical ocular administration of the compound of Formula I compared with pilocarpine 1.25%. Common adverse events associated with pilocarpine (particularly when administered to the eye) include, for example, headache, brow ache, accommodative change, eye irritation, eye pain, blurred vision, visual impairment, ocular blurring, ocular discomfort, blurry vision, light sensitivity, stinging, and itching.
Cohort 8 is a cohort to evaluate safety, tolerability, pharmacokinetics, and efficacy of the compound of Formula I administered at the dose strength recommended by the data monitoring committee compared with vehicle for 14 days in participants with presbyopia who wear contact lenses (9 participants receive the compound of Formula I and 3 participants receive vehicle).
In all cohorts of this study (Cohorts 4 to 8), participants receive their first dose in clinic on Day 1, and stay in clinic for safety, pharmacokinetic, and efficacy evaluations for 10 hours post-dose. The participants then return for dosing and safety evaluations once daily from Day 2 to Day 7. They then receive multidose bottles for single unit of use for at-home dosing from Days 8 to 13 and return to the clinic on Day 14 for dosing as well as safety, tolerability, pharmacokinetic (Cohorts 4 to 6, and 8 only), and efficacy evaluations for 10 hours post-dose. On Day 30, participants return for a safety follow-up and close out visit.
In Parts A and B of this study, safety and tolerability are evaluated as in Example 12 (i.e. by monitoring participants in the three cohorts for exhibition/reporting of adverse events and monitoring the characteristics/assessments as are monitored in Example 12), with the additional characteristics/assessments of contrast sensitivity, photopic (e.g. ≥80 cd/m^2; 251 lux at target) and mesopic (e.g. 3.2 to 3.5 cd/m^2; 10 to 11 lux at target) high contrast corrected distance visual acuity (each eye and binocularly), manifest refraction (mesopic and photopic) also being measured in Part A. Systemic and local pharmacokinetics of the compound of Formula I are evaluated by measuring plasma and tear concentrations of the compound of Formula I in the participants and also determining pharmacokinetic parameters as is done in Example 12. Target engagement is measured by measuring the pupil size of the participants during the study as is done in Example 12. […]

Dutch Belted rabbits = assay: In vivo rabbit miosis model (pupil diameter after single topical dose); conditions: for animals with greater than 2.5 mm reduction in pupil size from baseline: 0.1% w:v, scotopic (<10 lux), n=6; for miotic efficacy compared with other alpha adrenergic receptor agonists: low-light conditions (2-10 Lux)
Method: Female Dutch Belted rabbits (Covance, Princeton, New Jersey) weighing between 2-4 kg were used for these studies. […] For topical dosing, eye drops (volume=35 μl) were instilled into the lower conjunctival sac of the test eye.
Pupil diameter was measured in both the treated and untreated eye with an Optistick to the nearest 0.5 mm. […]

human alpha-2A receptor = target: T2, human alpha-2A receptor (Homo sapiens, UniProt P08913); assay: FLIPR calcium assay, HEK293 cells with human alpha-2A receptor coupled via chimeric Gqi5; type: cell-based
T2 construct: expressed in transfected cells
T2 sequence (P08913 1-465): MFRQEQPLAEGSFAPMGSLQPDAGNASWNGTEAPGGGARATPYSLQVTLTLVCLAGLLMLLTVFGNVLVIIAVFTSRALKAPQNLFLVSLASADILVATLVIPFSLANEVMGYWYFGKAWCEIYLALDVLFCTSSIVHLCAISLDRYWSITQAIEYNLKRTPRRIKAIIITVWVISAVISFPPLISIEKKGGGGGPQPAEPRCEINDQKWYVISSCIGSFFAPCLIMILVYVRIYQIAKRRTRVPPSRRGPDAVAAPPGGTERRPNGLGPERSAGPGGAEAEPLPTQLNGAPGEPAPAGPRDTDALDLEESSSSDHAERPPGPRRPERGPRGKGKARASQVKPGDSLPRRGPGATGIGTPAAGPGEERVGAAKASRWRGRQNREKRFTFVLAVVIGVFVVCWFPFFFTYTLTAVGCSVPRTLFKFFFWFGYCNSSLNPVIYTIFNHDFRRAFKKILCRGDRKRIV
Method: as §1
Specifically, four HEK293 stable cell lines were used in the FLIPR assay. The HEK293 cell line which stably expressed the bovine alpha adrenergic 1A receptor was used to characterize the alpha1 pharmacology. The alpha-2 adrenergic receptor family is a G coupled G-protein receptor. Therefore, in order to use these cell lines in the calcium based FLIPR assay, the chimeric G-protein Gqi5 was used to force the coupling of the human alpha-2A, alpha-2B, and alpha-2C receptors to the calcium pathway. Cells were plated, in triplicate, in poly-D-lysine coated 384-well plates at 25,000 cells per well and grown overnight in DMEM supplemented with 10% fetal bovine serum. For FLIPR evaluation, cells were washed twice with HBSS/HEPES buffer (1× Hanks Buffered Salt Solution, 20 mM HEPES, pH 7.4) prior to the addition of Fluo-4-AM (4 uM Fluo-4-AM, 0.04% pluronic acid in HBSS/HEPES buffer), a calcium-sensitive dye. Cells were loaded with dye for 40 minutes at 37° C., and then washed 4 times with HBSS/HEPES buffer to remove the excess dye. The test compounds were profiled at concentrations between 0.64 nM and 10,000 nM using a […] dilution factor.
as §2

presbyopic patients = conditions: different lighting conditions; cited from earlier work
[4] = Part A, bilaterally for 14 days
[5] = Part B, Cohort 8, contact lens wearers, 14 days
[6] = HEK293 stable cell line with Gqi5, peak calcium signal, read-out: human alpha2A EC50 (nm)

For `Cc1c(N=C2NCCN2)ccc2[nH]cnc12` [Compound 1], the “pupil diameter compared with vehicle” value (healthy participants) was “decrease in pupil diameter”, the safety and tolerability (healthy participants) was “acceptable safety and tolerability profiles” and the systemic exposures (healthy participants) was “sufficient safety margins”. For the same compound, the EC50 [1] was 286 nM, the “melanin binding (in words)” value [2] was “no significant melanin binding” and the “depth of focus compared with vehicle” value [3, 4] was “improved depth of focus”. The “distance corrected near visual acuity compared with vehicle” value [3, 4] was “numeric improvement (e.g. two or three lines)”, the “patient reported outcome questionnaires/questions compared with vehicle” value [3, 4] was “more positive answers” and the “pupil diameter compared with vehicle” value [3, 4] was “decrease in pupil diameter”. The systemic exposures [3, 4] was “sufficient safety margins”, the safety and tolerability ([3]; Part A, bilaterally for 14 days, 0.01% to 0.1%) was “acceptable (or improved) safety and tolerability profiles” and the “safety and tolerability compared with 1.25% (w/v) pilocarpine” value ([3]; Part B, Cohort 7) was “acceptable (or improved”. The “depth of focus compared with vehicle” value [3, 5] was “improved depth of focus”, the “distance corrected near (and/or intermediate) visual acuity compared with vehicle” value [3, 5] was “numeric improvement (e.g. two or three lines)” and the “patient reported outcome questionnaires/questions compared with vehicle” value [3, 5] was “more positive answers”. The safety and tolerability ([3]; Part B, both cohorts, bilaterally for 14 days) was “acceptable safety and tolerability profiles”, the “animals with greater than 2.5 mm reduction in pupil size from baseline” value (Dutch Belted rabbits; after 6 hours) was “more than half” and the “animals with greater than 2.5 mm reduction in pupil size from baseline” value (Dutch Belted rabbits; two hours after dosing) was “virtually all animals”. The “miotic action (peak pupil constriction and duration)” value (Dutch Belted rabbits; room lighting conditions, versus brimonidine) was “greater miotic action than brimonidine”, the “effect on pupil constriction compared to Compound 3” value (Dutch Belted rabbits; topical dose) was “greater effect on pupil constriction” and the “pupil constriction at 9 hours after dosing” value (Dutch Belted rabbits; topical dose, 9 hours) was “significant pupil constriction”. The “miotic efficacy compared with other alpha adrenergic receptor agonists” value (Dutch Belted rabbits; topical dose) was “best miotic effect” and the EC50 (human alpha-2A receptor; [6]) was 0.7 nM.

For `CCc1c(N=C2NCCN2)ccc2[nH]cnc12` [Compound 2, reference compound], the “miotic efficacy compared with other alpha adrenergic receptor agonists” value (Dutch Belted rabbits; topical dose) was “much less than brimonidine” and the EC50 (human alpha-2A receptor) was 11 nM.

With `Brc1c(N=C2NCCN2)ccc2[nH]cnc12` [Compound 3, reference compound] the “miotic efficacy compared with other alpha adrenergic receptor agonists” value (Dutch Belted rabbits; topical dose) was “much less than brimonidine” and the EC50 (human alpha-2A receptor; [6]) was 1 nM.

With `Brc1c(NC2=NCCN2)ccc2nccnc12` [Compound 4, brimonidine, reference compound] the EC50 [1] was 1200 nM, the “melanin binding (in words)” value [2] was “much more significant binding” and the “animals with greater than 2.5 mm reduction in pupil size from baseline” value (Dutch Belted rabbits; after 6 hours) was “virtually none of the animals”. For the same compound, the “animals with greater than 2.5 mm reduction in pupil size from baseline” value (Dutch Belted rabbits; half hour after dosing) was “much less than half of the animals” and the “average pupil size after brimonidine” value (presbyopic patients) was 3.4 mm.
